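Grown in 96-well plates, cells were treated for 48 hours with each compound at five concentrations. Insufficient inhibition: endpoint recorded as highest concentration tested. GI50: concentration for 50% inhibition of growth.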 Calls of active or inactive are those of the source. No stated cut-off is given here; in the data, active = GI50 up to about 1.1 µM and inactive = higher. Where only a bound is given, the exact number is not on record here.

Some test systems named below: RXF 393; MDA-MB-435; SK-OV-3; SF-539; CCRF-CEM; SNB-75; SK-MEL-2; Malme-3M; RPMI-8226; UACC-62; EKVX; NCI-H23; ACHN; SK-MEL-5; PC-3; NCI-H460; Hs-578T.
Holding throughout (experiment): NCI anticancer screen, dose series, 48 h

In the case of `Cc1cc(C)c(NC(=S)NC(=O)c2ccccc2)cc1C`, the GI50 with RXF 393 was > 100 µM (inactive); in the assay with MDA-MB-435, 52.8 µM (inactive); in the assay with SK-OV-3, > 100 µM (inactive); with SF-539 it was > 100 µM (inactive); with CCRF-CEM, > 100 µM (inactive); in the assay with SNB-75, > 100 µM (inactive). The GI50 with SK-MEL-2, in the assay with Malme-3M, with RPMI-8226, in the assay with UACC-62, with EKVX and with NCI-H23 was > 100 µM (inactive) in each case. The GI50 in the assay with ACHN is > 100 µM (inactive); in the assay on SK-MEL-5, 25.2 µM (inactive); with PC-3, 67.3 µM (inactive); in the assay with NCI-H460, > 100 µM (inactive); with Hs-578T, > 100 µM (inactive).
For the compound `NC(=O)C1CCCN1Cc1ccc2c(c1)OCO2` (configuration not stated), the GI50 with RXF 393, in the assay on MDA-MB-435, in the assay with SK-OV-3, in the assay on SF-539, in the assay on CCRF-CEM and with SNB-75 was > 100 µM (inactive) in each case. For the same compound, the GI50 in the assay with SK-MEL-2, with Malme-3M, in the assay on RPMI-8226, in the assay with UACC-62, in the assay on EKVX and in the assay on NCI-H23 was > 100 µM (inactive) each time. Also, the GI50 in the assay with ACHN, with SK-MEL-5, in the assay with PC-3, in the assay on NCI-H460 and in the assay on Hs-578T was > 100 µM (inactive) each time.
Turning to `C=Cc1c(C)c2cc3nc(c4c5[nH]c(cc6nc(cc1[nH]2)C(C)=C6CC)c(C)c5C(=O)C4C(=O)OC)C(CCC(=O)OC)C3C` (configuration not stated), the GI50 with RXF 393, in the assay on MDA-MB-435, in the assay with SK-OV-3, with SF-539, with CCRF-CEM and in the assay with SNB-75 was > 100 µM (inactive) throughout. The GI50 in the assay with SK-MEL-2, in the assay with Malme-3M, in the assay with RPMI-8226, in the assay with UACC-62, with EKVX and in the assay on NCI-H23 was > 100 µM (inactive) in each case. Also, the GI50 in the assay with ACHN was > 100 µM (inactive); in the assay on SK-MEL-5, > 100 µM (inactive); in the assay with PC-3, > 100 µM (inactive); with NCI-H460, > 100 µM (inactive); with Hs-578T, 81.3 µM (inactive).
On to `CCC(C)C1NC(=O)C(NC(=O)c2c3nc4c(C(=O)NC5C(=O)NC(C(C)CC)C(=O)N6CCCC6C(=O)N(C)CC(=O)N(C)C(C(C)C)C(=O)OC5C)ccc(C)c4oc-3c(C)c(=O)c2O)C(C)OC(=O)C(C(C)C)N(C)C(=O)CN(C)C(=O)C2CCCN2C1=O` (configuration not stated), for which the GI50 in the assay with RXF 393 was 2.54 µM (inactive); in the assay on MDA-MB-435, 4.92 µM (inactive); in the assay with SK-OV-3 it was 11.5 µM (inactive); in the assay on SF-539, 0.838 µM (active); in the assay with CCRF-CEM, 0.499 µM (active); in the assay with SNB-75, 2.62 µM (inactive). Also, the GI50 in the assay on SK-MEL-2 is 2.07 µM (inactive); in the assay on Malme-3M, 1.98 µM (inactive); in the assay with RPMI-8226, 0.902 µM (active); in the assay with UACC-62 it was 1.14 µM (inactive); in the assay with EKVX it was 14.2 µM (inactive); with NCI-H23, 5.41 µM (inactive). For the same compound, the GI50 in the assay on ACHN is 4.89 µM (inactive); in the assay on SK-MEL-5, 4.21 µM (inactive); with PC-3, 3.99 µM (inactive); with NCI-H460, 0.174 µM (active); in the assay with Hs-578T it was 4.49 µM (inactive).
With `C/C(=N\NC(N)=S)c1sc(-n2nc(-c3ccccc3)cc2-c2ccccc2)nc1C`, the GI50 in the assay on RXF 393 was > 100 µM (inactive); in the assay with MDA-MB-435, > 100 µM (inactive); with SK-OV-3, 62.1 µM (inactive); in the assay with SF-539, > 100 µM (inactive); with CCRF-CEM it was 36.5 µM (inactive); in the assay with SNB-75, > 100 µM (inactive). Moreover, the GI50 with SK-MEL-2 was > 100 µM (inactive); in the assay on Malme-3M, > 100 µM (inactive); in the assay with RPMI-8226, 16.9 µM (inactive); with UACC-62, > 100 µM (inactive); in the assay on EKVX it was 50.1 µM (inactive); in the assay on NCI-H23, > 100 µM (inactive). In addition, the GI50 is > 100 µM (inactive) in the assay with ACHN; 76.4 µM (inactive) with SK-MEL-5; 63.1 µM (inactive) with PC-3; > 100 µM (inactive) in the assay on NCI-H460; > 100 µM (inactive) in the assay on Hs-578T.
Consider `O=c1c2cc(S(=O)(=O)O)ccc2nc(COc2ccc(Oc3ccc(Cl)cc3Cl)cc2)n1C(=S)Nc1ccc(Cl)cc1`, for which the GI50 in the assay with RXF 393 was 15 µM (inactive); with MDA-MB-435 it was 18.6 µM (inactive); in the assay with SK-OV-3 it was 21.3 µM (inactive); in the assay with SF-539, 16.8 µM (inactive); in the assay on CCRF-CEM, 34.7 µM (inactive); with SNB-75 it was 18.8 µM (inactive). For the same compound, the GI50 is 18.4 µM (inactive) with SK-MEL-2; 21.6 µM (inactive) in the assay on Malme-3M; 26.9 µM (inactive) in the assay on RPMI-8226; 15.8 µM (inactive) with UACC-62; 21.8 µM (inactive) with EKVX; 18.7 µM (inactive) with NCI-H23. Besides, the GI50 in the assay on ACHN was 23.6 µM (inactive); in the assay with SK-MEL-5, 17.7 µM (inactive); in the assay with PC-3, 34.1 µM (inactive); in the assay on NCI-H460, 17.9 µM (inactive); in the assay on Hs-578T, 20.6 µM (inactive).
`CCCc1cn2c(/C=N/NC(=N)N)c(-c3ccc([N+](=O)[O-])cc3)nc2s1`: the GI50 in the assay with RXF 393 was 1.73 µM (inactive); in the assay on MDA-MB-435, 1.63 µM (inactive); in the assay with SK-OV-3, 1.79 µM (inactive); in the assay with SF-539, 4.88 µM (inactive); in the assay with CCRF-CEM it was 0.277 µM (active); with SNB-75, 1.8 µM (inactive). In addition, the GI50 with SK-MEL-2 was 2.13 µM (inactive); in the assay with Malme-3M, 2.5 µM (inactive); in the assay with RPMI-8226, 0.45 µM (active); with UACC-62 it was 1.82 µM (inactive); with EKVX it was 1.95 µM (inactive); with NCI-H23, 1.61 µM (inactive). Further, the GI50 is 1.67 µM (inactive) in the assay on ACHN; 5.81 µM (inactive) in the assay with SK-MEL-5; 2.01 µM (inactive) in the assay with PC-3; 1.93 µM (inactive) in the assay on NCI-H460; 2.33 µM (inactive) in the assay with Hs-578T.
Turning to `Nc1ncc(Cl)c(NCC2(CO)CC(CCc3ccccc3)C2)n1` (configuration not stated), the GI50 in the assay with RXF 393 is > 100 µM (inactive); with MDA-MB-435, > 100 µM (inactive); in the assay on SK-OV-3 it was > 100 µM (inactive); in the assay with SF-539 it was > 100 µM (inactive); with CCRF-CEM it was > 67.8 µM (inactive); in the assay on SNB-75 it was 46.2 µM (inactive). Besides, the GI50 in the assay on SK-MEL-2 is > 100 µM (inactive); with Malme-3M, > 100 µM (inactive); in the assay on RPMI-8226 it was 2.79 µM (inactive); in the assay with UACC-62 it was > 100 µM (inactive); in the assay with EKVX, > 24.9 µM (inactive); in the assay with NCI-H23, > 100 µM (inactive). Moreover, the GI50 is 34 µM (inactive) with ACHN; 0.38 µM (active) in the assay with SK-MEL-5; > 100 µM (inactive) in the assay on PC-3; > 55 µM (inactive) in the assay on NCI-H460; > 100 µM (inactive) in the assay with Hs-578T.
As for `Fc1c(F)c(C(F)(F)F)c(F)c(F)c1N/N=C/c1cn(Cc2ccccc2)c2ccccc12`, the GI50 in the assay with RXF 393 is 17.7 µM (inactive); with MDA-MB-435, 22.1 µM (inactive); in the assay on SK-OV-3, 12.2 µM (inactive); in the assay with SF-539, 20 µM (inactive); with CCRF-CEM, 20.1 µM (inactive); in the assay with SNB-75, 20 µM (inactive). For the same compound, the GI50 in the assay on SK-MEL-2 is 25.6 µM (inactive); in the assay with Malme-3M it was 30.4 µM (inactive); with RPMI-8226, 25.9 µM (inactive); in the assay on UACC-62 it was 22.4 µM (inactive); with EKVX it was 18.4 µM (inactive); in the assay with NCI-H23, 27.5 µM (inactive). Moreover, the GI50 is 26.7 µM (inactive) in the assay with ACHN; 18.2 µM (inactive) in the assay on SK-MEL-5; 27.4 µM (inactive) with PC-3; 12.1 µM (inactive) in the assay on NCI-H460; 41.7 µM (inactive) in the assay on Hs-578T.
For the compound `CCOC(=O)CC(=O)C(=O)NN=C1NCCN1`, the GI50 in the assay on RXF 393, in the assay with MDA-MB-435, in the assay on SK-OV-3, in the assay with SF-539, in the assay on CCRF-CEM and in the assay with SNB-75 was > 100 µM (inactive) in each case. In addition, the GI50 with SK-MEL-2, in the assay with Malme-3M, in the assay on RPMI-8226, in the assay with UACC-62, with EKVX and in the assay with NCI-H23 was > 100 µM (inactive) throughout. Further, the GI50 in the assay with ACHN, in the assay with SK-MEL-5, in the assay with PC-3, in the assay on NCI-H460 and with Hs-578T was > 100 µM (inactive) each time.
As for `C/C=C/C(CC(O)(C(F)(F)F)C(F)(F)F)=N/NC(N)=S`, the GI50 with RXF 393, in the assay on MDA-MB-435, in the assay on SK-OV-3, in the assay with SF-539, in the assay with CCRF-CEM and with SNB-75 was > 10 µM (inactive) throughout. Further, the GI50 with SK-MEL-2, in the assay with Malme-3M, in the assay with RPMI-8226, with UACC-62, in the assay on EKVX and in the assay on NCI-H23 was > 10 µM (inactive) each time. The GI50 in the assay on ACHN, in the assay with SK-MEL-5, in the assay on PC-3, in the assay on NCI-H460 and in the assay on Hs-578T was > 10 µM (inactive) each time.
